{"source": "patent US20240226122A9", "about": "“TREATMENT OF GASTROINTESTINAL DISORDERS” (Greenspace Labs, Inc., priority 2022, published 2024)", "test": "Micro evaporation screening, re-dissolution of API:polymer matrices", "type": "physicochemical", "method": "Micro evaporation screening experiments were done by dissolving API and polymer in an organic solvent and mixed in centrifuge tubes. Then the solvent was removed using vacuum concentrator. Samples were then mixed for 4, 10, and 30 minutes using phosphate buffer pH 6.8 as a reconstitution medium. For Eudragit S100 phosphate buffer pH 7.4 was used as a reconstitution media, citrate buffer pH 4.5 was used for Eudragit EPO. Phosphate buffer pH 6.8 was used for the rest of the polymers. Samples were mixed for 4, 10, and 30 minutes. Analysis was done by UV spectrometry to measure re-dissolution behavior of polymer system.\nSeveral organic solvents were screened for the micro evaporation screening trials including acetone, tetrahydrofuran, dichloromethane, methanol, and ethanol.\nRound 1 matrix Screening • 30:70 API:Soluplus • 30:70 API:Eudragit EPO • 30:70 API:Kollidon VA 64 • 25:75 API:PVP K30 • 25:75 API:Eudragit S100\nRound 2 matrix screening with surfactants\nSurfactants/solubilizers (5-10%) were screened for enhancement of spring-parachute effect, which is a strategy used in the pharmaceutical formulation to improve the solubility and bioavailability of poorly-soluble drugs: • PEG 1500 • Poloxamer 407 (HLB˜18) • SLS (HLB˜40) • Kolliphor RH40 (HLB−15) • TPGS (HLB˜13)\nCBD Miniaturized Screening Experiment—Micro Evaporation Matrices screened: • API:Soluplus (30:70) • API:Eudragit EPO (30:70) • API:PVP K30 (25:75) • API:Eudragit S100 (25:75) • API:Kollidon VA64 (10:90) • API+Kollidon VA64+PEG1500 (10:85:5) • API+Kollidon VA64+SLS (10:85:5) • API+Kollidon VA64+Kolliphor RH40 (10:85:5) • API+Kollidon VA64+TPGS (10:85:5) • API+Kollidon VA64+Poloxamer 407 (10:85:5)\nCBDA Miniaturized Screening Experiment—Micro Evaporation Matrices screened: • API:Eudragit EPO (30:70) • API:PVP K30 (30:70) • API:Soluplus (30:70) • API:Eudragit S100 (30:70) • API:Kollidon VA64 (25:75) • API+Kollidon VA64+PEG1500 (25:70:5) • API+Kollidon VA64+SLS (25:70:5) • API+Kollidon VA64+Kolliphor RH40 (25:70:5) • API+Kollidon VA64+TPGS (25:70:5) • API+Kollidon VA64+Poloxamer 407 (25:70:5)"}
{"molecule": "C=C(C)[C@@H]1CCC(C)=C[C@H]1c1c(O)cc(CCCCC)cc1O", "note": "[CBD, cannabidiol, reference compound]", "values": [{"measurement": "re-dissolution of API from matrix", "setting": "CBD matrix with Kollidon VA64, at 10 min, 1 mg API per tube", "value": "complete dissolution"}]}
{"molecule": "C=C(C)[C@@H]1CCC(C)=C[C@H]1c1c(O)cc(CCCCC)c(C(=O)O)c1O", "note": "[CBDA, cannabidiolic acid]", "values": [{"measurement": "dissolution concentration", "setting": "CBDA matrix with Kollidon VA64 with addition of SLS, Kolliphor RH40, 10 and 30 min timepoints", "value": "490 to 500", "unit": "µg/mL"}]}
{"molecule": "CCCCCc1cc(O)c(C/C=C(\\C)CCC=C(C)C)c(O)c1C(=O)O", "note": "[CBGA, cannabigerolic acid]", "values": [{"measurement": "dissolution concentration", "setting": "CBGA matrix with Kollidon VA64 with addition of SLS and Poloxamer 407", "value": "520 to 550", "unit": "µg/mL"}]}
